According to PubChem BioAssay AID2060618 (Molecular Pharmacology Branch, DTP, NCI, 2025):

Test system: 454973-116-R2-J3-PDC spheroids, percent test/control viability
Test: Anticancer human tumor 454973-116-R2-J3-PDC patient-derived pancreatic carcinoma cell line growth inhibition [CLK]
Settings: spheroids with HUVEC and MSC; for IC50: curve of first compound; for viability, T/C: stronger effect = lower value
Text: A high-throughput screen of multi-cell type tumor spheroids was designed to identify active combinations of […] and targeted small molecules. Complex spheroids include a stromal component modeled by human endothelial cells (HUVEC) and fibroblasts modeled by human mesenchymal stem cells (MSCs). The concentration ranges selected for each drug and investigational agent were based upon clinically achievable concentrations if the clinical Cmax of the agent was known.
Compounds. The drugs and investigational agents: cirtuvivint (SM08502; NSC835563), CC-671 (NSC850746), vemurafenib (NSC761431), tapotoclax (NSC804041), sotorasib (NSC818433), adagrasib (NSC831453), MRTX-1133 (NSC836407), BAY2416964 (NSC825713), copanlisib (NSC816437), inavolisib (NSC800729), abemaciclib (NSC768073), osimertinib (NSC779217), entinostat (NSC756642), eltanexor (KPT-8602, NSC794443), venetoclax (NSC766270), ceralasertib (NSC777638), bortezomib (NSC756655), olaparib (NSC753686), talazoparib (NSC767125), alisertib (NSC759677), peposertib (NSC802822), gemcitabine (NSC613327), 5-fluorouracil (NSC19893), SN-38 (NSC673596), oxaliplatin (NSC266046), paclitaxel (NSC125973), and doxorubicin (NSC123127), were obtained from the National Cancer Institute (NCI) Developmental Therapeutics Program Chemical Repository. The FDA-approved anticancer drug set is available from the Developmental Therapeutics Program at https://dtp.cancer.gov/organization/dscb/obtaining/available plates.htm. […] The stock solutions were prepared in dimethyl sulfoxide (DMSO, Sigma-Aldrich, St. Louis, MO, cat. D2650), except for the platinum complexes which were prepared in saline (Quality Biological, Gaithersburg, MD, cat. 114-055-101), at 800-fold the tested concentration and stored at -70 degrees C prior to their use. All drugs and investigational agents were tested over a range starting from a high concentration at or near the clinical Cmax and decreasing in half-log increments. If the clinical Cmax for an agent had not been determined, the highest concentration tested was 10 microM.
Cell Culture. All cells were maintained in an incubator at 37 degrees C and 5% CO2 with 95% humidity. The PDC lines were cultured according to standard operating procedures established by the NCI PDMR. Briefly, all PDCs were thawed and cultured in Matrigel-coated flasks prepared with a working solution of 1X Ham's F-12 nutrient mix, without supplementation (Invitrogen, Waltham, MA, cat. 11765054), 100 U/mL penicillin-streptomycin (Invitrogen, cat. 15140122), and 2.5% Matrigel (Corning Inc., Corning, NY, cat. 354248) for the first three passages. The 947758-054-R-J2-PDC line was cultured in 6B/Colon 1A media, which includes advanced DMEM/F-12 (Thermo Fisher Scientific, cat. 12634028), 10 mM HEPES (Thermo Fisher Scientific, cat. 15630080), 1X GlutaMAX supplement (Thermo Fisher Scientific, cat. 35050061), 0.1 mg/mL primocin (InvivoGen, cat. ant-pm-2), 10% defined fetal bovine serum, heat inactivated (HyClone Laboratories Inc., cat. SH30070.03HI), 1.25 mM N-Acetyl-L-cysteine (Sigma-Aldrich, cat. A9165), 10 mM nicotinamide (Sigma-Aldrich, cat. N0636), 1X B-27 supplement (Thermo Fisher Scientific, cat. 17504044), 1X N-2 supplement (Thermo Fisher Scientific, cat. 17502048), and 10 microM Y-27632 dihydrochloride (Tocris Bioscience, cat. 1254). The 876862-298-R-J1-PDC was cultured in 6E media, which includes all 6B/Colon 1A media components plus 50% L-WRN conditioned media (ATCC, cat. CRL-3276), 50 ng/mL recombinant human EGF recombinant protein (hEGF; Thermo Fisher Scientific, cat. PHG0311), 10 ng/mL recombinant human fibroblast growth factor 10 (hGFG-10; PeproTech, cat. 100-26), 1 ng/mL recombinant human fibroblast growth factor 2 (hFGF-2; PeproTech, cat. 100-18B), and 1 µM prostaglandin E2 (PGE2; Tocris, cat. 2296). The 227483-062-R1-J1-PDC line was cultured in Panc media, containing all 6E components except hFGF-2, with the addition of 500 nM SB-431542 (Selleckchem, cat. S1067) and 10 nM gastrin (Tocris, cat. 3006). […]
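Also: spheroids exposed to compounds for 7 days before readout.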

In the case of COc1cccc2c1C(=O)c1c(O)c3c(c(O)c1C2=O)CC(O)(C(=O)CO)CC3OC1CC(N)C(O)C(C)O1 (configuration not stated) + CN1CCN(c2cc(C(=O)Nc3cc4cc(-c5cnn(C)c5)ccc4cn3)ccn2)CC1, the IC50 (second compound 0.0316 µM) is reported as < 0.0316 µM, the IC50 (second compound 0.1 µM) is reported as < 0.0316 µM and the IC50 (second compound 0.316 µM) is reported as < 0.0316 µM. For the same compound, the IC50 (second compound 1 µM) was < 0.0316 µM, the IC50 (second compound 3.16 µM) was < 0.0316 µM and the IC50 (second compound 10 µM) was < 0.0316 µM. The viability, T/C (second compound 0.0316 µM, first compound 0.0316 µM) was 40.8%, the viability, T/C (second compound 0.0316 µM, first compound 0.1 µM) was 27.2% and the viability, T/C (second compound 0.0316 µM, first compound 0.316 µM) was 21%. It also gave a viability, T/C (second compound 0.0316 µM, first compound 1 µM) of 8.81%, a viability, T/C (second compound 0.0316 µM, first compound 3.16 µM) of 0.25% and a viability, T/C (second compound 0.0316 µM, first compound 10 µM) of 0.19%. The viability, T/C (second compound 0.1 µM, first compound 0.0316 µM) was 29.2%, the viability, T/C (second compound 0.1 µM, first compound 0.1 µM) was 26.5% and the viability, T/C (second compound 0.1 µM, first compound 0.316 µM) was 17.9%. The viability, T/C (second compound 0.1 µM, first compound 1 µM) was 3.51%, the viability, T/C (second compound 0.1 µM, first compound 3.16 µM) was 0.16% and the viability, T/C (second compound 0.1 µM, first compound 10 µM) was 0.16%. It also gave a viability, T/C (second compound 0.316 µM, first compound 0.0316 µM) of 1.16%, a viability, T/C (second compound 0.316 µM, first compound 0.1 µM) of 1.16% and a viability, T/C (second compound 0.316 µM, first compound 0.316 µM) of 1.46%. The viability, T/C (second compound 0.316 µM, first compound 1 µM) was 0.14%, the viability, T/C (second compound 0.316 µM, first compound 3.16 µM) was 0.33% and the viability, T/C (second compound 0.316 µM, first compound 10 µM) was 0.12%. The viability, T/C (second compound 1 µM, first compound 0.0316 µM) was 0.11%, the viability, T/C (second compound 1 µM, first compound 0.1 µM) was 0.15% and the viability, T/C (second compound 1 µM, first compound 0.316 µM) was 1.47%. For the same compound, the viability, T/C (second compound 1 µM, first compound 1 µM) was 0.11%, the viability, T/C (second compound 1 µM, first compound 3.16 µM) was 0.12% and the viability, T/C (second compound 1 µM, first compound 10 µM) was 0.18%. It also gave a viability, T/C (second compound 3.16 µM, first compound 0.0316 µM) of 0.08%, a viability, T/C (second compound 3.16 µM, first compound 0.1 µM) of 0.45% and a viability, T/C (second compound 3.16 µM, first compound 0.316 µM) of 0.15%. It also gave a viability, T/C (second compound 3.16 µM, first compound 1 µM) of 0.15%, a viability, T/C (second compound 3.16 µM, first compound 3.16 µM) of 0.17% and a viability, T/C (second compound 3.16 µM, first compound 10 µM) of 0.1%. It also gave a viability, T/C (second compound 10 µM, first compound 0.0316 µM) of 0.12%, a viability, T/C (second compound 10 µM, first compound 0.1 µM) of 0.43% and a viability, T/C (second compound 10 µM, first compound 0.316 µM) of 0.13%. The viability, T/C (second compound 10 µM, first compound 1 µM) was 0.12%, the viability, T/C (second compound 10 µM, first compound 3.16 µM) was 0.14% and the viability, T/C (second compound 10 µM, first compound 10 µM) was 0.11%.
